Measurements reported in patent US8809234B1, “Drift reduction compositions for agricultural use” (AgQuam LLC, priority 2011, dated 2014).

Assays:
Assay type in all cases: in vivo
Details in all cases: Glyphosate 0.375 lb/acre; AMS 17 lb/100 gal, NIS, AQ 284 or AQ 268 […] v/v, INTERLOCK 4 fl oz/acre
[1] = test system: Corn; assay: Greenhouse study for weed control, corn
Description: (§1) A greenhouse study was conducted to test the efficacy of the AQ 284 combination water conditioning adjuvant and drift reduction composition compared to the commercial standard (INTERLOCK). Greenhouse research was conducted with individual plants growing in 3×3×3 inch pots. Greenhouse treatments were applied with a track sprayer using an 8002 E single nozzle applying 20 gpa.

[2] = test system: Sunflower; assay: Greenhouse study for weed control, sunflower
Description: as §1

[3] = test system: Wheat; assay: Greenhouse study for weed control, wheat
Description: as §1

[4] = test system: Corn, Sunflower, Wheat; assay: Greenhouse study for weed control, average of species
Description: as §1

## O=C(O)CNCP(=O)(O)O [Glyphosate, N-(phosphonomethyl)glycine]
[1]
  Corn % Control 18 Days After Application: 10.0%
[2]
  Sunflower % Control 18 Days After Application: 15.0%
[3]
  Wheat % Control 18 Days After Application: 15.0%
[4]
  Average % Control 18 Days After Application: 13.3%
